Experimental data from US20260083751A1, “ALLOSTERIC MODULATORS OF ANDROGEN RECEPTOR COACTIVATOR RECRUITMENT FOR CRPC THERAPY” (University of Pittsburgh – Of the Commonwealth System of …, priority 2022, published 2026).
“Also recorded” adds a separate entry of the source.

How the values were obtained:
Format in all cases: cell-based
AR-LBD and TIF2 = biological target: T1, AR-LBD and TIF2 (Homo sapiens, UniProt P10275); assay: AR-TIF2 mammalian 2-hybrid assay; details: HEK 293 cells; read-out: Inhibition DHT-induced AR-TIF2 mammalian 2 hybrid assay IC50
T1 construct: AR-LBD amino acids 658-919 expressed as a fusion protein with Gal4-DBD; expressed in transfected cells; host or cells: HEK 293, transient co-transfection
T1 sequence (P10275 658-919): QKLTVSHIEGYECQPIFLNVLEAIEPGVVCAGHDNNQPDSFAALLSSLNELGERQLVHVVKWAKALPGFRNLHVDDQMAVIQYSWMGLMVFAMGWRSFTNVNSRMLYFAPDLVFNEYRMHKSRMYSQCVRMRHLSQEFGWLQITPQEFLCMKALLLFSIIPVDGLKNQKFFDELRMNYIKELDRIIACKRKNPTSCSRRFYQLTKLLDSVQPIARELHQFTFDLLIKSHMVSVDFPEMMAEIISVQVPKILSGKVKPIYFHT
Source text: (§1) TIF2 and SRC1 Mammalian 2-Hybrid Assays: The 5×GAL4-TATA-luciferase reporter plasmid was a gift from Dr. Richard Maurer from the Oregon Health and Science University (Gonzalez et al., Cell 1989, 59:675-80), and constructs pGAL4-hAR-658-919 (AR-LBD amino acids 658-919 expressed as a fusion protein with Gal4-DBD) (Askew et al., J Biol Chem 2007, 282:25801-16), pVP16-SRC1 (full-length SRC1 expressed as a fusion with VP16 activation domain) (He et al., J Biol Chem 1999, 274:37219-25) and pVP16-Empty vectors were kindly provided to us by Dr. Elizabeth Wilson, from UNC Chapel Hill. pVP16-TIF2 was generated as described previously (Fancher et al., Assay Drug Dev Technol. 2019, 17:364-386). HEK 293 cells were transiently co-transfected with 5 ng of pGal4-AR-LBD, 10 ng of either pVP16-TIF2 or pVP16-SRC1, and 20 ng of the 5×Gal4-TATA-Luc reporter as described previously (Ibid.). HEK 293 cells were bulk co-transfected with the three plasmids that had been individually incubated with FuGENE® 6 transfection agent (Fugent LLC, Middleton, WI) at a 3:1 ratio for 25 min at room temperature (RT) in serum free media (SFM) and then combined with HEK 293 cells that were suspended in DMEM (Cellgro10013CV) with 2 mM L-glutamine (Invitrogen) that was supplemented with 10% fetal bovine serum, and 5,000 cells in a volume of 40 μL were seeded into the wells of white opaque 384-well assay plates (Greiner Bio-one, #781080) and cultured overnight at 37° C., 5% CO2, and 95% humidity. […] 25 μL of BrightGlo® reagent (Promega, Madison, WI) was added to the plate and the relative luminescence units (RLUs) were captured on a SpectraMax® M5e microtiter plate reader (Molecular Devices, LLC, San Jose, CA).

[1] = tested on: PSA secretion in C4-2 conditioned media; assay: Dot blot of PSA secretion by C4-2 cells; details: C4-2 cells, 20 μM 3 h, ±10 nM DHT 24 h
Procedure: To determine PSA secretion levels, C4-2 cells were seeded at 1.4×10^5 cells/well in 12-well plates and treated as described above for PSA cell expression experiments. […] 500 μL of conditioned media supernatant was added to the wells of 96-well to Bio-blot apparatus (BioRad, Hercules, CA) containing a nitrocellulose membrane and was allowed to pass through and attach to the membrane under gravity for 3-4 h at room temperature. The membrane was washed 1× with 500 μL TBS under vacuum, blocked with 1% BSA in TBST for 1 h, and then incubated overnight at 4° C. with the primary rabbit anti-hPSA antibody (Cell Signaling, Danvers, MA) diluted 1:1000 in TBST plus 1% BSA. Dot blots were washed 3× in 10 mL of TBST for 10 min, then incubated for 1 h with secondary goat anti-rabbit-IgG HRP conjugated antibody (Invitrogen, Carlsbad, CA) diluted 1:10,000 in TBST plus 1% Bovine Serum Albumin (BSA), washed 3× with […] of TBST for 10 min, and then developed with Pierce ECL western blotting substrate. Images of ECL dot blots were acquired on an iBright™ 1500 imaging system and quantified by iBright™ image analysis software (ThermoFisher Scientific, Waltham, MA).

AR-LBD and SRC1 = biological target: T2, AR-LBD and SRC1 (Homo sapiens, UniProt P10275); assay: AR-SRC1 mammalian 2-hybrid assay; details: HEK 293 cells; read-out: Inhibition DHT-induced AR-SRC1 mammalian 2 hybrid assay IC50
T2 construct: AR-LBD amino acids 658-919 expressed as a fusion protein with Gal4-DBD; expressed in transfected cells; host or cells: HEK 293, transient co-transfection
T2 sequence (P10275 658-919): T1 sequence (P10275 658-919)
Source text: as §1

C4-2 cells = assay: Prostate cancer cell line growth inhibition assay, C4-2; details: C4-2, 72 h; read-out: AR positive C4-2 GI50
Procedure: (§2) Prostate Cancer Cell Line Growth Inhibition Assays: The PC-3, DU-145, LNCaP, C4-2, and 22Rv1 PC cell line growth inhibition assays have been described previously (Fancher et al., Assay Drug Dev Technol. 2016, 14:453-477; Fancher et al., Assay Drug Dev Technol. 2019, 17:364-386). On day 1, each PC cell line was harvested, counted, and seeded into two 384-well assay plates, a time zero (T0) and a time 72 h (T72) plate. PC cell lines were all seeded at 1,000 cells per well in 45 μL of tissue culture media in uncoated white clear bottom 384-well assay plates (VWR, #82050-076) using a Matrix electronic multichannel pipette (Thermo Fisher Scientific, Waltham, MA) and cultured overnight at 37° C., 5% CO2, and 95% humidity. On day 2, 25 μL of the CellTiter-Glo® (CTG) (Promega Corporation, Madison, WI) detection reagent was dispensed into the wells of the TO assay plate using a Matrix electronic multichannel pipette, and the RLUs were captured on the SpectraMax® M5e (Molecular Devices LLC, Sunnyvale, CA) microtiter plate reader. Also on day 2, 5 μL of compounds were transferred into the test wells of the T72 384-well assay plates which were returned to the incubator for 72 h. Control wells received DMSO alone. On day 5, 25 μL of the CTG detection reagent was dispensed into the wells of the T72 assay plate using a Matrix electronic multichannel pipette, and the RLU's were captured on the SpectraMax® M5e microtiter plate reader platform.
(§3) For the 96-well AR-LBD H^3-DHT radioligand binding assay, eight minimum and maximum plate control wells were utilized to normalize the data. […] To normalize the 72 h compound exposure PC growth inhibition data, the signals from the compound treated wells were processed and expressed as % of the T72 DMSO plate controls. IC50 and GI50 values for each of the bioassays were calculated using GraphPad Prism 9 software to plot and fit data to curves using the Sigmoidal dose response variable slope equation Y=Bottom+[Top-Bottom]/[1+10^(Log EC50−X)*HillSlope].

22Rv1 cells = assay: Prostate cancer cell line growth inhibition assay, 22Rv1; details: Homo sapiens, 22Rv1, 72 h; read-out: AR positive 22Rv1 GI50
Procedure: as §2, §3

Row | IC50 (AR-LBD and TIF2) | IC50 (AR-LBD and SRC1) | GI50 (C4-2 cells) | GI50 (22Rv1 cells) | Structure (SMILES) | Endogenous and DHT-enhanced PSA secretion [1]
1 | 0.89 µM | 0.6 µM | 6.92 µM | 13.2 µM | Cc1c(-c2ccccc2F)[nH]c2ccc(CNC(=O)CCc3cn[nH]c3)cc12 [Compound S3-11] | substantially reduced; also recorded: inhibition
2 | 0.91 µM | 0.38 µM | 30.7 µM | 42.5 µM | Cc1ccccc1-c1cc(O)c2c(c1)CN(c1nc(C(N)=O)cs1)CCO2 [Compound S1-1] | substantially reduced; also recorded: inhibition
3 | 0.05 µM | 0.29 µM | 8.66 µM | 17.9 µM | Cc1nsc(NC(=O)N2CCC(Sc3ccccc3C)CC2)n1 [Compound S2-6] | substantially reduced; also recorded: inhibition
